Measurements as given in PMC5513037, “Examining the influence of specificity ligands and ATP-competitive ligands on the overall effectiveness of bivalent kinase inhibitors” (Proteome Science, 2017).
pIC50: −log10 of the molar value.

What was measured:
Experiment in all cases: KAM-matrix competition in K562 lysate;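 on 0.001 uM KAM: median log10 fold change of treatment over DMSO control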;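 on 0.01 uM KAM: median log10 fold change of treatment over DMSO control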;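 on 0.1 uM KAM: median log10 fold change of treatment over DMSO control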;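 on 1 uM KAM: median log10 fold change of treatment over DMSO control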;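 on 10 uM KAM: median log10 fold change of treatment over DMSO control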
Assay type in all cases: binding
[1] = target: T1, CAMK2G (Homo sapiens, UniProt Q13555);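 on 0.001 uM KAM: median log10 fold change of treatment over DMSO control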;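 on 0.01 uM KAM: median log10 fold change of treatment over DMSO control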;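 on 0.1 uM KAM: median log10 fold change of treatment over DMSO control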;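 on 1 uM KAM: median log10 fold change of treatment over DMSO control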;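 on 10 uM KAM: median log10 fold change of treatment over DMSO control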
T1 construct: endogenous in cells; host or cells: K562
Method: (§1) Supplement 12953_2017_125_MOESM1_ESM.zip/MS_Supp Info.xlsx, sheet "KAM" | column: 10 uM KAM; 1 uM KAM; 0.1 uM KAM; 0.01 uM KAM; 0.001 uM KAM; RB50

[2] = target: T2, CSK (Homo sapiens, UniProt P41240);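 on 0.001 uM KAM: median log10 fold change of treatment over DMSO control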;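 on 0.01 uM KAM: median log10 fold change of treatment over DMSO control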;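 on 0.1 uM KAM: median log10 fold change of treatment over DMSO control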;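 on 1 uM KAM: median log10 fold change of treatment over DMSO control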;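 on 10 uM KAM: median log10 fold change of treatment over DMSO control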
T2 construct: endogenous in cells; host or cells: K562
T2 sequence (P41240 whole entry): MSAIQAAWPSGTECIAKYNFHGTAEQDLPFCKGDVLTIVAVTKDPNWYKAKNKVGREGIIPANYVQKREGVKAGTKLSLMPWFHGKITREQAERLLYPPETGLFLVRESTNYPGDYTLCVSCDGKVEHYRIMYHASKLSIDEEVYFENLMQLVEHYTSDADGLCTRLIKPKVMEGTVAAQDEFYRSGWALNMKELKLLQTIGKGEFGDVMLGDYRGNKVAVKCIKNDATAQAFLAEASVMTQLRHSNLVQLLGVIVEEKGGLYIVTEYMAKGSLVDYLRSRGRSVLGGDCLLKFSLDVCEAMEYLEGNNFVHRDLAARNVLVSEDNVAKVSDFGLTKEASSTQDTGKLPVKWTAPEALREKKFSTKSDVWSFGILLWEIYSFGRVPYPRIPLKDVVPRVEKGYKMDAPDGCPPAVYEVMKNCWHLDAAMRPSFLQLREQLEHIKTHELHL
Method: as §1

[3] = target: T3, INSR (Homo sapiens, UniProt P06213);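 on 0.001 uM KAM: median log10 fold change of treatment over DMSO control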;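 on 0.01 uM KAM: median log10 fold change of treatment over DMSO control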;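 on 0.1 uM KAM: median log10 fold change of treatment over DMSO control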;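 on 1 uM KAM: median log10 fold change of treatment over DMSO control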;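 on 10 uM KAM: median log10 fold change of treatment over DMSO control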
T3 construct: endogenous in cells; host or cells: K562
T3 sequence (P06213 28-1382): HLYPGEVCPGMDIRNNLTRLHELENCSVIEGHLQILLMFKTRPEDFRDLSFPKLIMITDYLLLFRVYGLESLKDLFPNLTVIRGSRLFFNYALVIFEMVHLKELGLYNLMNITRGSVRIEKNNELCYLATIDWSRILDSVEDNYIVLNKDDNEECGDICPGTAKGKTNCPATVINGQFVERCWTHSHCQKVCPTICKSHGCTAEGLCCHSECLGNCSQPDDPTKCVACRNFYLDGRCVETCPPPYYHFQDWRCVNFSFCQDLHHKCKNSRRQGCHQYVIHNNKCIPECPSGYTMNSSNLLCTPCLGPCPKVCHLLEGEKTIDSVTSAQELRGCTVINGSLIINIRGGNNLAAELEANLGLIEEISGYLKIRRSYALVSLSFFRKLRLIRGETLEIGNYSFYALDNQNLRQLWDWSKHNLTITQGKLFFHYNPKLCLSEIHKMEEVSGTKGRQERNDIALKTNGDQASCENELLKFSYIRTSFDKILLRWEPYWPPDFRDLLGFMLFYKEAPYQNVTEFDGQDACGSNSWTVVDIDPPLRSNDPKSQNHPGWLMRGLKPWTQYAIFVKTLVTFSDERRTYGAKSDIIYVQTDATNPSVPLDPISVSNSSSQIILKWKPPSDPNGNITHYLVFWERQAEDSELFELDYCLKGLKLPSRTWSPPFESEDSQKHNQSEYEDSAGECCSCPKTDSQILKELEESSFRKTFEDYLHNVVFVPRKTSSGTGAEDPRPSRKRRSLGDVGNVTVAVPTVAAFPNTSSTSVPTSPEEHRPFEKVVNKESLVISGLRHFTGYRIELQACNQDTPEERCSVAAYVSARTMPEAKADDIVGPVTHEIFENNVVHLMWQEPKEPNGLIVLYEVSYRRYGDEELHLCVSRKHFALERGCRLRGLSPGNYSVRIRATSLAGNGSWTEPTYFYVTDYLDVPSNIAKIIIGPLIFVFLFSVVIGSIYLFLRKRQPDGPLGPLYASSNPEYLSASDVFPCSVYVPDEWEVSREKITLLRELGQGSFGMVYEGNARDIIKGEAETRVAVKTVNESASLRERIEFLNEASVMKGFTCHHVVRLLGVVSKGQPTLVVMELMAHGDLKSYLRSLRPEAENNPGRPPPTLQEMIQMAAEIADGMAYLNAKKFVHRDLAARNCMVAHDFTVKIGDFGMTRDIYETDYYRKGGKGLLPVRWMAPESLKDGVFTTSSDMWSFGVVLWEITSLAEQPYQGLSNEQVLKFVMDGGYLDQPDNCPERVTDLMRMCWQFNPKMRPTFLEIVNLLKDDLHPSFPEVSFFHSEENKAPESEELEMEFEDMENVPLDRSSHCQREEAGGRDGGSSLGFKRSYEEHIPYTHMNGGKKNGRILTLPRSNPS
Method: as §1

[4] = target: T4, KSR1 (Homo sapiens, UniProt Q8IVT5);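 on 0.001 uM KAM: median log10 fold change of treatment over DMSO control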;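 on 0.01 uM KAM: median log10 fold change of treatment over DMSO control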;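 on 0.1 uM KAM: median log10 fold change of treatment over DMSO control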;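 on 1 uM KAM: median log10 fold change of treatment over DMSO control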;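 on 10 uM KAM: median log10 fold change of treatment over DMSO control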
T4 construct: endogenous in cells; host or cells: K562
T4 sequence (Q8IVT5 1-923): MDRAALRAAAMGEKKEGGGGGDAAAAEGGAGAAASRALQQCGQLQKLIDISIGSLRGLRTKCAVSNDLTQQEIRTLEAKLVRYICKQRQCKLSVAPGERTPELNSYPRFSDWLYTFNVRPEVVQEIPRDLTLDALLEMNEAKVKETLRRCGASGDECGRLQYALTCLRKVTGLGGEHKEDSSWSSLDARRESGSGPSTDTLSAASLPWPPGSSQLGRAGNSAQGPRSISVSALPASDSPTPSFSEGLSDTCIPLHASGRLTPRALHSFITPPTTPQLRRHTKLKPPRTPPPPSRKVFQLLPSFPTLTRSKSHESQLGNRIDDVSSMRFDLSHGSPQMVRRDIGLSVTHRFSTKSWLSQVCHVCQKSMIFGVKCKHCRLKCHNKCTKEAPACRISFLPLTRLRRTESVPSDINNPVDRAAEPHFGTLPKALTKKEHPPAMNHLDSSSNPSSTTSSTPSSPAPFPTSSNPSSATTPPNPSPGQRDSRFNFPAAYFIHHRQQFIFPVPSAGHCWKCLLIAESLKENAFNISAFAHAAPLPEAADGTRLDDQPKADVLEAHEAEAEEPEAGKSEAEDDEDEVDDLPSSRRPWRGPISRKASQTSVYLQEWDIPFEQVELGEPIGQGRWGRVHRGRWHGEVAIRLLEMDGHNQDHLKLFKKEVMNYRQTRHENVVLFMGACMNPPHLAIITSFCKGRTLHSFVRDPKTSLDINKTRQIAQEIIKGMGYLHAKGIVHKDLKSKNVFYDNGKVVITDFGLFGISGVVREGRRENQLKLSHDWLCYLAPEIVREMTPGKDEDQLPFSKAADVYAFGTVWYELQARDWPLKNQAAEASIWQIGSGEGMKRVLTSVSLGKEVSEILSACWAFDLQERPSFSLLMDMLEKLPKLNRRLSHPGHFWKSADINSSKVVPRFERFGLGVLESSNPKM
Method: as §1

[5] = target: T5, MAP2K1 (Homo sapiens, UniProt Q02750)
T5 construct: endogenous in cells; host or cells: K562
T5 sequence (Q02750 whole entry): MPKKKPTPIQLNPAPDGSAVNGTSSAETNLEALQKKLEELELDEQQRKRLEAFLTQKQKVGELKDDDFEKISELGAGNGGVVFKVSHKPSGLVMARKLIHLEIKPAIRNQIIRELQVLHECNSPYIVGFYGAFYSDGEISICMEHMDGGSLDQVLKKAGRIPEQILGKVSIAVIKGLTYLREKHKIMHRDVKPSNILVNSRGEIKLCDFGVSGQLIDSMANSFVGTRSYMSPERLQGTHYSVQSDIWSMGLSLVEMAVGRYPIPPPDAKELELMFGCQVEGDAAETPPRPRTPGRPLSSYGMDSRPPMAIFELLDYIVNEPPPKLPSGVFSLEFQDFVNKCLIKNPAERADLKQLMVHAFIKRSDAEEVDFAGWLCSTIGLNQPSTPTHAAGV
Method: as §1

[6] = target: T6, MAP4K5 (Homo sapiens, UniProt Q9Y4K4)
T6 construct: endogenous in cells; host or cells: K562
T6 sequence (Q9Y4K4 whole entry): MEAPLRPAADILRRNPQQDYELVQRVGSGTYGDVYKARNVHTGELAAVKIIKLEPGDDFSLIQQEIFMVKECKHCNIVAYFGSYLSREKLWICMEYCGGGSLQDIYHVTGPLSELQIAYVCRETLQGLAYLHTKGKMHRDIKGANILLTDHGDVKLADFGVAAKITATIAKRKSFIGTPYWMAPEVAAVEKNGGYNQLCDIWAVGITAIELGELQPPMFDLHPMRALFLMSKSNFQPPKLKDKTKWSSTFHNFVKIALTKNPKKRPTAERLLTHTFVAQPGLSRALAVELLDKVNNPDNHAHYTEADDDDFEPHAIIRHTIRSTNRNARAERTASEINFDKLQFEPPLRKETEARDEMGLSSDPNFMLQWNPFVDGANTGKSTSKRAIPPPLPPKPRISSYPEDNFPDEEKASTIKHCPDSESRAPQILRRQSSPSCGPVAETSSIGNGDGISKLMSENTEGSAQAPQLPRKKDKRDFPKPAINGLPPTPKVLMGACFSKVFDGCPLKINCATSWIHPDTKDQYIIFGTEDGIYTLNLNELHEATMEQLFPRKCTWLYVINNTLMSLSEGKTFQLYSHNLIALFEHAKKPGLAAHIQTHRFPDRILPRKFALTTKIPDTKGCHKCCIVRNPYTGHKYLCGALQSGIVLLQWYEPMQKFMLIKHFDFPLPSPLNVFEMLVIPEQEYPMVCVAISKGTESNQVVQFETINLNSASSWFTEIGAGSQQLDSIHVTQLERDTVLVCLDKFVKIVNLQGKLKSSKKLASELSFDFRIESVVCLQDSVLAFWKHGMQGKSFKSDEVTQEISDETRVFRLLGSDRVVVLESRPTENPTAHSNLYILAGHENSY
Method: as §1

[7] = target: T7, PRKAA1 (Homo sapiens, UniProt Q13131)
T7 construct: endogenous in cells; host or cells: K562
T7 sequence (Q13131 whole entry): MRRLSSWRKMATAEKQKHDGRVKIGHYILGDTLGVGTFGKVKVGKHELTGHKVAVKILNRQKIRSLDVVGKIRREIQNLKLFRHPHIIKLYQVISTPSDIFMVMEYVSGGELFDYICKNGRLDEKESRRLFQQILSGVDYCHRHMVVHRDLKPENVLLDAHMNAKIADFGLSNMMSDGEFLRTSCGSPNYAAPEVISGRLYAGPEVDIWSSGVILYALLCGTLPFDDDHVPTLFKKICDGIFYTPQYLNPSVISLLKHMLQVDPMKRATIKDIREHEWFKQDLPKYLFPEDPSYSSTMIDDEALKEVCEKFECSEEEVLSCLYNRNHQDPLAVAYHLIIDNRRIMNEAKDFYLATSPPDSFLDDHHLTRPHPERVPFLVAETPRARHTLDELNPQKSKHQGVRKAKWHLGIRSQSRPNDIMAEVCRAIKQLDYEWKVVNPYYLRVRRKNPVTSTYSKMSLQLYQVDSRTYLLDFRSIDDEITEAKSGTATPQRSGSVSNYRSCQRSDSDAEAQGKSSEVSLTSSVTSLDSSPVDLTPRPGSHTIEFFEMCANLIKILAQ
T7 sequence (Q9Y478 2-270 partner limits assumed): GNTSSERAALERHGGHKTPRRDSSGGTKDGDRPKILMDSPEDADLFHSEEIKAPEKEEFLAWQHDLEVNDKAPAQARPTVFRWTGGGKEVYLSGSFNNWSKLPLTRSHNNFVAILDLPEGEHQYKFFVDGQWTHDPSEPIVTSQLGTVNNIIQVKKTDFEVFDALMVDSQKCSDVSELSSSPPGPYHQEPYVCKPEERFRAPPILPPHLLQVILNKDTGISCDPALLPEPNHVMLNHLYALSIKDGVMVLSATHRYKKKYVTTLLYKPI
T7 sequence (P54619 whole entry partner): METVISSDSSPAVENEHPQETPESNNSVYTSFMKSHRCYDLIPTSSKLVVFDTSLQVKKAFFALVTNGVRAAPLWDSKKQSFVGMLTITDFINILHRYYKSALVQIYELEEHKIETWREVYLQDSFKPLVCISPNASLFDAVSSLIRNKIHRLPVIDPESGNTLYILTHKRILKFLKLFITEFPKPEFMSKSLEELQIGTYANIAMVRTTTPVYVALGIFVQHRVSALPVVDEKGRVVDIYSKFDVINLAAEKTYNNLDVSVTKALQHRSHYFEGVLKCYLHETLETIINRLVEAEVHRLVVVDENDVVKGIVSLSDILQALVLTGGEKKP
Method: as §1

[8] = target: T8, STK26 (Homo sapiens, UniProt Q9P289)
T8 construct: endogenous in cells; host or cells: K562
Method: as §1

[9] = target: T9, STK3 (Homo sapiens, UniProt Q13188)
T9 construct: endogenous in cells; host or cells: K562 cell lysate
T9 sequence (Q13188 1-491): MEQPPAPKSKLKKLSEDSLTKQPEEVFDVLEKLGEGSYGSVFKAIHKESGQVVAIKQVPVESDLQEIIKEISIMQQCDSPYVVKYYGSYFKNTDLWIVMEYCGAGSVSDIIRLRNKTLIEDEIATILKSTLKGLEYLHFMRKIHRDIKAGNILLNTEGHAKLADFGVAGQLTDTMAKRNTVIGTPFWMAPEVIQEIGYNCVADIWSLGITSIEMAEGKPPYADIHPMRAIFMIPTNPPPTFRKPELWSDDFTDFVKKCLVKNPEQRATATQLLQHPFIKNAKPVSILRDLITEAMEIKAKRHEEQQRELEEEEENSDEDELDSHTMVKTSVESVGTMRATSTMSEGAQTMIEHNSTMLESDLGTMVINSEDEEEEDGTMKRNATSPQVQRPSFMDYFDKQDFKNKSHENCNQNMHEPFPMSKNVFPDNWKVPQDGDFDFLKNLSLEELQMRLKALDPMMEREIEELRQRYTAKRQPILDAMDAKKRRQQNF
Method: as §1

[10] = target: T10, ZAK (Homo sapiens, UniProt Q9NYL2)
T10 construct: endogenous in cells; host or cells: K562 cell lysate
T10 sequence (Q9NYL2 whole entry): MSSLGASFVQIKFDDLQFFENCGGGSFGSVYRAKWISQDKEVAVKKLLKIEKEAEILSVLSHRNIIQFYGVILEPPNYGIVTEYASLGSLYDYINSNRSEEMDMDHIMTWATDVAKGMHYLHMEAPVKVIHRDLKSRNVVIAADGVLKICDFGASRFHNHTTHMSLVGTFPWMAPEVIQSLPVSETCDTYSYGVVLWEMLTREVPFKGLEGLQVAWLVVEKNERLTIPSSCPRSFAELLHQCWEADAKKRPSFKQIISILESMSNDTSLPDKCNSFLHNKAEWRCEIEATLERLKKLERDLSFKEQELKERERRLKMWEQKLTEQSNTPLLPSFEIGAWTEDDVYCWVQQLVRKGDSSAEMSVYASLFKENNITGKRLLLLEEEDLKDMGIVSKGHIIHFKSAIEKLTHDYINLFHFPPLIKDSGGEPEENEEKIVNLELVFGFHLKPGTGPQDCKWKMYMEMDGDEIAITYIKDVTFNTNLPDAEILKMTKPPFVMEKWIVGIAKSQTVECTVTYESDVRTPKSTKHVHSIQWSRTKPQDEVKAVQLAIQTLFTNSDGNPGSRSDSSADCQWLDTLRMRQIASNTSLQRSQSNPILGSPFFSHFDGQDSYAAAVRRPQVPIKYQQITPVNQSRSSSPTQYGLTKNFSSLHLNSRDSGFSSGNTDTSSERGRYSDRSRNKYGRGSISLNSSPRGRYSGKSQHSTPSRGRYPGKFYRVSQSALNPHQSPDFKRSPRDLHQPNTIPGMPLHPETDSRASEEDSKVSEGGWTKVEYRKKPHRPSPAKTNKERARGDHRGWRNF
Method: as §1

[11] = KAM 0.001-10 uM, read-out: RB50 (the source's name)
[12] = read-out: RB50 (the source's name)

N#CCc1ccc(Nc2nc(NCCCN)cc(Nc3cc(C4CC4)[nH]n3)n2)cc1 [KAM]
pIC50 [1, 11]: < 5.00 | 0.001 uM KAM ([1]; relative to 0 uM KAM = 0): -0.0014 | 0.01 uM KAM ([1]; relative to 0 uM KAM = 0): 0.01571 | 0.1 uM KAM ([1]; relative to 0 uM KAM = 0): -0.03365 | 1 uM KAM ([1]; relative to 0 uM KAM = 0): -0.07588 | 10 uM KAM ([1]; relative to 0 uM KAM = 0): -0.2109 | pIC50 [2, 11]: < 5.00 | 0.001 uM KAM ([2]; relative to 0 uM KAM = 0): 0.01067 | 0.01 uM KAM ([2]; relative to 0 uM KAM = 0): -0.02135 | 0.1 uM KAM ([2]; relative to 0 uM KAM = 0): 0.028 | 1 uM KAM ([2]; relative to 0 uM KAM = 0): -0.04258 | 10 uM KAM ([2]; relative to 0 uM KAM = 0): -0.03639 | pIC50 [3, 11]: < 5.00 | 0.001 uM KAM ([3]; relative to 0 uM KAM = 0): -0.0389 | 0.01 uM KAM ([3]; relative to 0 uM KAM = 0): 0.002129 | 0.1 uM KAM ([3]; relative to 0 uM KAM = 0): -0.09696 | 1 uM KAM ([3]; relative to 0 uM KAM = 0): -0.2508 | 10 uM KAM ([3]; relative to 0 uM KAM = 0): -0.2556 | pIC50 [4, 11]: < 5.00 | 0.001 uM KAM ([4]; relative to 0 uM KAM = 0): -0.01848 | 0.01 uM KAM ([4]; relative to 0 uM KAM = 0): -0.01741 | 0.1 uM KAM ([4]; relative to 0 uM KAM = 0): -0.1182 | 1 uM KAM ([4]; relative to 0 uM KAM = 0): -0.1931 | 10 uM KAM ([4]; relative to 0 uM KAM = 0): -0.2362 | median Log10 fold change ([5]; 0.001 uM KAM): -0.01014 | median Log10 fold change ([5]; 0.01 uM KAM): -0.05282 | median Log10 fold change ([5]; 0.1 uM KAM): -0.2542 | median Log10 fold change ([5]; 1 uM KAM): -0.5685 | median Log10 fold change ([5]; 10 uM KAM): -0.7087 | pIC50 [5, 12]: 6.79 | median Log10 fold change ([6]; 0.001 uM KAM): 0.009454 | median Log10 fold change ([6]; 0.01 uM KAM): -0.01011 | median Log10 fold change ([6]; 0.1 uM KAM): -0.2304 | median Log10 fold change ([6]; 1 uM KAM): -0.4191 | median Log10 fold change ([6]; 10 uM KAM): -0.5735 | pIC50 [6, 12]: 6.48 | median Log10 fold change ([7]; 0.001 uM KAM): 0.006818 | median Log10 fold change ([7]; 0.01 uM KAM): -0.02218 | median Log10 fold change ([7]; 0.1 uM KAM): -0.1974 | median Log10 fold change ([7]; 1 uM KAM): -0.5073 | median Log10 fold change ([7]; 10 uM KAM): -0.6565 | pIC50 [7, 12]: 6.55 | median Log10 fold change ([8]; 0.001 uM KAM): -0.05178 | median Log10 fold change ([8]; 0.01 uM KAM): -0.01072 | median Log10 fold change ([8]; 0.1 uM KAM): -0.2654 | median Log10 fold change ([8]; 1 uM KAM): -0.4176 | median Log10 fold change ([8]; 10 uM KAM): -0.5788 | pIC50 [8, 12]: 6.60 | median Log10 fold change ([9]; 0.001 uM KAM): -0.01987 | median Log10 fold change ([9]; 0.01 uM KAM): -0.0374 | median Log10 fold change ([9]; 0.1 uM KAM): -0.2245 | median Log10 fold change ([9]; 1 uM KAM): -0.1979 | median Log10 fold change ([9]; 10 uM KAM): -0.3452 | pIC50 [9, 12]: 5.43 | median Log10 fold change ([10]; 0.001 uM KAM): -0.0362 | median Log10 fold change ([10]; 0.01 uM KAM): -0.03172 | median Log10 fold change ([10]; 0.1 uM KAM): -0.2036 | median Log10 fold change ([10]; 1 uM KAM): -0.2767 | median Log10 fold change ([10]; 10 uM KAM): -0.5362 | pIC50 [10, 12]: 6.00
